“Also recorded” adds a separate entry of the source.
Tests used:
lactating goats [1] = experiment: Experiment 2: udder infusion of heparin, toxicity study in lactating goats; format: in vivo, goat
Protocol: A study was conducted to determine if the production of heparin in the mammary gland would also have a significant effect on the producing animal. The protein produced by the transgene can potentially affect the mammary gland directly. In addition, it is known that there is potential leakage of the protein into the systemic system. To assess the potential effects of systemic and infused heparin on the goat, the study outlined below was performed. Blood was drawn and milk collected from each milking animal at least once daily during two experiments to determine the effects of heparin administration relative to systemic and udder infusion routes. The levels of heparin, and clotting times as indicated by aPTT were calculated from blood serum. Milk volumes were measured and heparin levels in the milk were determined. In addition, the quality of the milk (color, consistency, evidence of clumping, blood, or mastitis) was noted. The general health of each animal was assessed daily, including a rectal temperature. Since heparin is an anticoagulant, animals were also inspected daily for any gross signs of bleeding, such as abnormal bruising or petechiae. Six normal, non-transgenic, lactating goats were fed approximately four pounds of specially formulated vegetarian goat feed, per day, and given a combination of timothy and alfalfa hay as well as free access to water and plain and mineralized salt blocks. As these were lactating animals, they were milked daily starting on the day they arrived. The milk volume was measured each day and a rectal temperature recorded Milk volumes and rectal temperatures prior to the first or second experiment can be seen below in Table 7. Animals were manually restrained so that the jugular vein could be identified. A 21-gauge ¾ inch butterfly needle (BD Vacutainer Blood Collection Set Ref 367251, Franklin Lakes, N.J. USA) was inserted into the vessel, and the blood was collected into 2-1.8 ml sodium citrate vacutainer tubes (BD Vacutainer, Buffered Na Citrate, Franklin Lakes, N.J. USA). After collection (or after blood collection and heparin administration—see below) the needle was removed, and pressure was applied at the collection site to stop any bleeding. The animal received positive reinforcement (grain reward) after each procedure. All goats were milked using a portable milking machine, once every day starting the day the goats arrived. Animals were placed on a milking stand for this procedure. The general protocol for milking was as follows. Personnel doing the milking washed their hands thoroughly and donned latex examination gloves. The udder was cleaned using paper towels and water. The udder was then dried using clean paper towels. The teat was cleaned again using alcohol wipes, and pre-dip (FS-106 Sanitizing Teat Dip, IBA Inc., Millbury, Mass. USA) was applied and allowed to dry. A small sample was expressed from the teat by hand to assess milk quality, perform a streak test, and to be frozen for further analysis. The milking machine was then attached to the udder. After milking, the teats were cleaned with alcohol, and post milking disinfectant was applied (Ultra Shield Sanitizing Barrier Teat Dip, IBA Inc., Millbury, Mass. USA). The volume of milk was determined, and the small sample was frozen and stored in a −80° C. chest freezer for subsequent testing. The six milking goats were divided into 3 groups of 2 goats. All goats were milked daily with a milking machine, and had blood samples taken. After milking and blood collection, goats had their udders infused with heparin using a teat infusion cannula (Udder Infusion Cannula, IBA Inc., Millbury, Mass. USA). Each group received either a low (25,000 Units), medium (100,000 Units), or high (500,000 Units) dose of infused heparin, equivalent to the 3 different expression levels being explored on a per liter of milk basis. Volumes infused were less than 50 ml per udder. This protocol was performed for a total of seven days. […]

lactating goats [2] = experiment: Experiment 1: systemic (intravenous) administration of heparin, toxicity study in lactating goats; format: in vivo, goat
Protocol: A study was conducted to determine if the production of heparin in the mammary gland would also have a significant effect on the producing animal. The protein produced by the transgene can potentially affect the mammary gland directly. In addition, it is known that there is potential leakage of the protein into the systemic system. To assess the potential effects of systemic and infused heparin on the goat, the study outlined below was performed. Blood was drawn and milk collected from each milking animal at least once daily during two experiments to determine the effects of heparin administration relative to systemic and udder infusion routes. The levels of heparin, and clotting times as indicated by aPTT were calculated from blood serum. Milk volumes were measured and heparin levels in the milk were determined. In addition, the quality of the milk (color, consistency, evidence of clumping, blood, or mastitis) was noted. The general health of each animal was assessed daily, including a rectal temperature. Since heparin is an anticoagulant, animals were also inspected daily for any gross signs of bleeding, such as abnormal bruising or petechiae. Six normal, non-transgenic, lactating goats were fed approximately four pounds of specially formulated vegetarian goat feed, per day, and given a combination of timothy and alfalfa hay as well as free access to water and plain and mineralized salt blocks. As these were lactating animals, they were milked daily starting on the day they arrived. The milk volume was measured each day and a rectal temperature recorded Milk volumes and rectal temperatures prior to the first or second experiment can be seen below in Table 7. Animals were manually restrained so that the jugular vein could be identified. A 21-gauge ¾ inch butterfly needle (BD Vacutainer Blood Collection Set Ref 367251, Franklin Lakes, N.J. USA) was inserted into the vessel, and the blood was collected into 2-1.8 ml sodium citrate vacutainer tubes (BD Vacutainer, Buffered Na Citrate, Franklin Lakes, N.J. USA). After collection (or after blood collection and heparin administration—see below) the needle was removed, and pressure was applied at the collection site to stop any bleeding. The animal received positive reinforcement (grain reward) after each procedure. The animals were restrained as above. The butterfly needle used for blood collection described above is designed so that blood can be collected via a vacutainer blood collection tube, or a syringe can be attached. Thus, after blood collection, the part of the needle that connects with the blood collection tube was removed, and a syringe with heparin was attached and the heparin was slowly injected. An additional 0.4 ml of sterile normal saline was flushed through the needle to ensure that all heparin was delivered. In this way a single needle placement was used for both blood collection and heparin injection, and any additional stress relative to a second venipuncture site was avoided. All goats were milked using a portable milking machine, once every day starting the day the goats arrived. Animals were placed on a milking stand for this procedure. The general protocol for milking was as follows. Personnel doing the milking washed their hands thoroughly and donned latex examination gloves. The udder was cleaned using paper towels and water. The udder was then dried using clean paper towels. […]

[3] = Medium dose udder infusion (100,000 units per liter), Animal 4, days 1-8, day 1
[4] = Medium dose udder infusion (100,000 units per liter), Animal 4, days 1-8, day 2
[5] = Medium dose udder infusion (100,000 units per liter), Animal 4, days 1-8, day 3
[6] = Medium dose udder infusion (100,000 units per liter), Animal 4, days 1-8, day 4
[7] = Medium dose udder infusion (100,000 units per liter), Animal 4, days 1-8, day 5
[8] = Medium dose udder infusion (100,000 units per liter), Animal 4, days 1-8, day 6
[9] = Medium dose udder infusion (100,000 units per liter), Animal 4, days 1-8, day 7
[10] = goat infused with the highest levels
[11] = udder infusion, low or medium dose for a week

Substance heparin has a Milk volume (lactating goats [1]; Low dose udder infusion (25,000 units/liter), Animal 1, days 1-8 (daily infusion days 1-7), day 1) of 2.25 L, a Milk volume (lactating goats [1]; Low dose udder infusion (25,000 units/liter), Animal 1, days 1-8 (daily infusion days 1-7), day 3) of 2.2 L and a Milk volume (lactating goats [1]; Low dose udder infusion (25,000 units/liter), Animal 1, days 1-8 (daily infusion days 1-7), day 4) of 2.0 L. It also gave a Milk volume (lactating goats [1]; Low dose udder infusion (25,000 units/liter), Animal 1, days 1-8 (daily infusion days 1-7), day 5) of 1.9 L, a Milk volume (lactating goats [1]; Low dose udder infusion (25,000 units/liter), Animal 1, days 1-8 (daily infusion days 1-7), day 6) of 1.8 L and a Milk volume (lactating goats [1]; Low dose udder infusion (25,000 units/liter), Animal 1, days 1-8 (daily infusion days 1-7), day 7) of 1.7 L. For the same substance, the aPTT time (lactating goats [1]; Low dose udder infusion (25,000 units/liter), Animal 1, days 1-8, day 1) was 23.2 s, the aPTT time (lactating goats [1]; Low dose udder infusion (25,000 units/liter), Animal 1, days 1-8, day 2) was 36 s and the aPTT time (lactating goats [1]; Low dose udder infusion (25,000 units/liter), Animal 1, days 1-8, day 3) was 37 s. It also gave an aPTT time (lactating goats [1]; Low dose udder infusion (25,000 units/liter), Animal 1, days 1-8, day 4) of 34.9 s, an aPTT time (lactating goats [1]; Low dose udder infusion (25,000 units/liter), Animal 1, days 1-8, day 5) of 34.5 s and an aPTT time (lactating goats [1]; Low dose udder infusion (25,000 units/liter), Animal 1, days 1-8, day 6) of 34.6 s. It also gave an aPTT time (lactating goats [1]; Low dose udder infusion (25,000 units/liter), Animal 1, days 1-8, day 7) of 33.5 s, an aPTT time (lactating goats [1]; Low dose udder infusion (25,000 units/liter), Animal 1, days 1-8, day 8) of 33.1 s and a Milk volume (lactating goats [1]; Medium dose udder infusion (100,000 units per liter), Animal 2, days 1-8, day 1) of 2 L. The Milk volume (lactating goats [1]; Medium dose udder infusion (100,000 units per liter), Animal 2, days 1-8, day 2) was 1.35 L, the Milk volume (lactating goats [1]; Medium dose udder infusion (100,000 units per liter), Animal 2, days 1-8, day 3) was 1.5 L and the Milk volume (lactating goats [1]; Medium dose udder infusion (100,000 units per liter), Animal 2, days 1-8, day 4) was 1.6 L. The Milk volume (lactating goats [1]; Medium dose udder infusion (100,000 units per liter), Animal 2, days 1-8, day 5) was 1.3 L, the Milk volume (lactating goats [1]; Medium dose udder infusion (100,000 units per liter), Animal 2, days 1-8, day 6) was 1.2 L and the Milk volume (lactating goats [1]; Medium dose udder infusion (100,000 units per liter), Animal 2, days 1-8, day 7) was 1.25 L. For the same substance, the Milk volume (lactating goats [1]; Medium dose udder infusion (100,000 units per liter), Animal 2, days 1-8, day 8) was 1.75 L, the Milk volume (lactating goats [1]; [3]) was 3.25 L and the aPTT time (lactating goats [1]; [3]) was 24.7 s. For the same substance, the Milk volume (lactating goats [1]; [4]) was 2.75 L, the aPTT time (lactating goats [1]; [4]) was 32.7 s and the Milk volume (lactating goats [1]; [5]) was 2.5 L. The aPTT time (lactating goats [1]; [5]) was 44 s, the Milk volume (lactating goats [1]; [6]) was 1.9 L and the aPTT time (lactating goats [1]; [6]) was 30.2 s. It also gave a Milk volume (lactating goats [1]; [7]) of 2.2 L, an aPTT time (lactating goats [1]; [7]) of 42.4 s and a Milk volume (lactating goats [1]; [8]) of 2.0 L. It also gave an aPTT time (lactating goats [1]; [8]) of 42.1 s, a Milk volume (lactating goats [1]; [9]) of 2.25 L and an aPTT time (lactating goats [1]; [9]) of 22.9 s. For the same substance, the aPTT time (lactating goats [1]; Medium dose udder infusion (100,000 units per liter), Animal 4, days 1-8, day 8) was 29.8 s, the “Milk volume during heparin infusion into the udder” value (lactating goats [1]; all infusion levels) was “initial drop in milk volume” and the Milk production (lactating goats [1]; [10]) was “dramatic decrease in milk production”. For the same substance, the Udder response (lactating goats [1]; [10]) was “inflammatory response”, the aPTT (lactating goats [1]; high levels of infused heparin) was “dramatically increased” and the “Goat health and milk production” value (lactating goats [1]; low and medium doses of systemic and infused heparin (overall conclusion)) was “minimal effects”. For the same substance, the aPTT (lactating goats [1]; single daily udder infusions of low or medium dose for a week) was ≤ 55 s, the Systemic effects (lactating goats [1]; udder infusion of the highest levels) was “high body temperature and increased respiratory sounds” and the Body temperature (lactating goats [1]; [11]) was “little effect”. For the same substance, the Signs of bleeding (lactating goats [1]; [11]) was “did not produce any signs of bleeding”, the “aPTT during washout period after heparin udder infusion” value (lactating goats [1]; washout after udder infusion) was 20 to 40 s and the aPTT (lactating goats [2]; High dose (31,000 Units IV TID), noon and 4 PM samples, above instrument maximum) was > 124 s. The “aPTT overnight between the two high doses” value (lactating goats [2]; High dose IV, second High AM sample prior to AM dose) was “low 40's; also recorded: dropped to more normal levels overnight”, the Lung sounds (lactating goats [2]; High dose IV, second day, noon and 4 PM examinations) was “increase in lung sounds in one animal” and the “Petechiae or abnormal bleeding” value (lactating goats [2]; IV heparin over 6 days, any dose) was “no obvious gross signs of bleeding; also recorded: no evidence of petechiae or abnormal bleeding”. For the same substance, the “Milk volumes and body temperatures” value (lactating goats [2]; any IV dose) was “little, if any, effect; also recorded: not affected”.

From patent US20160326547A1, “TRANSGENIC PRODUCTION OF HEPARIN” (LFB USA, INC., priority 2013, published 2016)
